Test system: ivacaftor metabolism in rat liver microsomes (RLM)
Test: Screening of 79 drugs (100 μM) for inhibition of ivacaftor metabolism in RLM incubation
Assay type: in vitro ADME
Conditions: each drug 100 μM, 0.3 mg/mL RLM
Experimental: The supernatants were centrifuged at 100,000 × g for 1 h, and the pellets were resuspended with cold […] PBS. Protein concentrations were determined by Bradford Protein Assay Kit (Thermo Scientific, Waltham, MA, United States).
This system was made up of 200 μL of incubation solution consisting of 0.3 mg/mL RLM or 0.4 mg/mL HLM, 1.0 mM NADPH, pH 7.4 PBS and ivacaftor. […] The solution should be pre-incubated at 37°C for 5 min before adding NADPH. Following the addition of NADPH, the mixture should be incubated for 40 min. The reaction should then be stopped at −80°C. After the enzyme reaction was completed, 20 μL of 500 ng/mL IS solution and 400 μL acetonitrile (protein precipitating agent) were added to the mixture. The mixture was vortexed for 2 min and then centrifuged at 13,000 rpm for 10 min. After centrifugation, 100 μL of the supernatant was quantified using UPLC-MS/MS.
Each drug was used at a concentration of 100 μM as the inhibitor. The culture system was 200 μL and included 0.3 mg/mL RLM, 1.0 mM NADPH, PBS, ivacaftor, and inhibitor. The reaction procedure was the same as the enzyme reaction mentioned above Section 2.2.

Row | Compound | Metabolic rate (Mean ± SD, % of control)
1 | O=C(O)Cc1ccc(O)cc1 [2-(4-Hydroxyphenyl) acetic acid] | 101.32 ± 0.94 % of control
2 | O=C(O[C@@H]1Cc2c(O)cc(O)cc2O[C@@H]1c1cc(O)c(O)c(O)c1)c1cc(O)c(O)c(O)c1 [(-)-Epigallocatechin gallate] | 72.21 ± 13.75 % of control
3 | CCCCc1oc2ccccc2c1C(=O)c1cc(I)c(OCCN(CC)CC)c(I)c1 [Amiodarone] | 5.73 ± 0.85 % of control
4 | C=C1CC[C@@H]2[C@](C)(CO)[C@H](O)CC[C@@]2(C)[C@@H]1C/C=C1/C(=O)OC[C@H]1O [Andrographolide] | 81.58 ± 1.22 % of control
5 | O=c1cc(-c2ccc(O)cc2)oc2cc(O)cc(O)c12 [Apigenin] | 58.35 ± 2.14 % of control
6 | COc1ccc(-n2nc(C(N)=O)c3c2C(=O)N(c2ccc(N4CCCCC4=O)cc2)CC3)cc1 [Apixaban] | 83.91 ± 3.91 % of control
7 | CO[C@H]1O[C@@H]2O[C@@]3(C)CC[C@H]4[C@H](C)CC[C@@H]([C@H]1C)[C@@]24OO3 [Artemether] | 41.88 ± 3.81 % of control
8 | O=c1cc(-c2ccccc2)oc2cc(O)c(O)c(O)c12 [Baicalein] | 15.24 ± 0.00 % of control
9 | O=C(O)[C@H]1O[C@@H](Oc2cc3oc(-c4ccccc4)cc(=O)c3c(O)c2O)[C@H](O)[C@@H](O)[C@@H]1O [Baicalin] | 50.95 ± 0.08 % of control
10 | COc1ccc2cc3[n+](cc2c1OC)CCc1cc2c(cc1-3)OCO2 [Berberine] | 109.72 ± 0.72 % of control
11 | COc1c(O)cc2c(c1O)[C@@H]1O[C@H](CO)[C@@H](O)[C@H](O)[C@H]1OC2=O [Bergenin] | 142.63 ± 33.46 % of control
12 | C[N+](C)(C)CC(=O)O [Betaine] | 100.10 ± 4.97 % of control
13 | COc1ccccc1Oc1c(NS(=O)(=O)c2ccc(C(C)(C)C)cc2)nc(-c2ncccn2)nc1OCCO [Bosentan] | 131.49 ± 2.21 % of control
14 | O=C(O)/C=C/c1ccc(O)c(O)c1 [Caffeic acid] | 106.41 ± 1.94 % of control
15 | COc1ccccc1OCCNCC(O)COc1cccc2[nH]c3ccccc3c12 (stereo not drawn) [Carvedilol] | 12.87 ± 0.57 % of control
16 | O=c1cc(-c2ccccc2)oc2cc(O)cc(O)c12 [Chrysin] | 74.50 ± 20.73 % of control
17 | O=C1CCc2cc(OCCCCc3nnnn3C3CCCCC3)ccc2N1 [Cilostazol] | 13.12 ± 0.36 % of control
18 | CN/C(=N/CCSCc1nc[nH]c1C)NC#N [Cimetidine] | 62.59 ± 8.46 % of control
19 | COc1cc(/C=C/C(=O)CC(=O)/C=C/c2ccc(O)c(OC)c2)ccc1O [Curcumin] | 8.19 ± 0.34 % of control
20 | [H]/N=C(/N)c1ccc(NCc2nc3cc(C(=O)N(CCC(=O)O)c4ccccn4)ccc3n2C)cc1 [Dabigatran] | 104.42 ± 27.66 % of control
21 | O=c1c(-c2ccc(O)cc2)coc2cc(O)ccc12 [Daidzein] | 105.78 ± 2.90 % of control
22 | COc1cc2cc(Oc3ccc4ccc(=O)oc4c3)c(=O)oc2cc1O [Daphnoretin] | 69.60 ± 0.85 % of control
23 | CN(C)[C@@H](CCOc1cccc2ccccc12)c1ccccc1 [Dapoxetine] | 19.76 ± 0.64 % of control
24 | COc1ccc([C@@H]2Sc3ccccc3N(CCN(C)C)C(=O)[C@@H]2OC(C)=O)cc1 [Dilthiazem] | 26.04 ± 1.00 % of control
25 | CCCCc1oc2ccc(NS(C)(=O)=O)cc2c1C(=O)c1ccc(OCCCN(CCCC)CCCC)cc1 [Dronedarone] | 4.76 ± 0.94 % of control
26 | Oc1cc(O)c2c(c1)O[C@H](c1ccc(O)c(O)c1)[C@H](O)C2 [Epicatechin] | 100.31 ± 2.66 % of control
27 | CCc1cccc2c3c([nH]c12)C(CC)(CC(=O)O)OCC3 (stereo not drawn) [Etodolac] | 98.19 ± 1.07 % of control

Row | Compound | Metabolic rate (Mean ± SD, % of control)
28 | COc1ccc2cc1Oc1ccc(cc1)C[C@H]1c3cc(c(OC)cc3CCN1C)Oc1c(O)c(OC)cc3c1[C@H](C2)N(C)CC3 [Fangchinoline] | 29.41 ± 4.61 % of control
29 | O=c1c(O)c(-c2ccc(O)c(O)c2)oc2cc(O)ccc12 [Fisetin] | 44.37 ± 1.28 % of control
30 | O=C(O)c1cc(O)c(O)c(O)c1 [Gallic acid] | 95.98 ± 6.77 % of control
31 | O=c1c(-c2ccc(O)cc2)coc2cc(O)cc(O)c12 [Genistein] | 50.39 ± 12.01 % of control
32 | CCC1=C(C)CN(C(=O)NCCc2ccc(S(=O)(=O)NC(=O)N[C@H]3CC[C@H](C)CC3)cc2)C1=O [Glimepiride] | 36.97 ± 1.02 % of control
33 | COc1ccc([C@@H]2CC(=O)c3c(O)cc(O)cc3O2)cc1O [Hesperetin] | 31.12 ± 2.75 % of control
34 | COc1ccc([C@@H]2CC(=O)c3c(O)cc(O[C@@H]4O[C@H](CO[C@@H]5O[C@@H](C)[C@H](O)[C@@H](O)[C@H]5O)[C@@H](O)[C@H](O)[C@H]4O)cc3O2)cc1O [Hesperiden] | 104.17 ± 3.09 % of control
35 | COc1cc(-c2oc3cc(O)cc(O)c3c(=O)c2O)ccc1O [Isorhamnetin] | 65.68 ± 3.49 % of control
36 | O=c1c(O)c(-c2ccc(O)cc2)oc2cc(O)cc(O)c12 [Kaempferol] | 66.02 ± 4.43 % of control
37 | COC(=O)C1=C(C)NC(C)=C(C(=O)OC(C)(C)CN(C)CCC(c2ccccc2)c2ccccc2)C1c1cccc([N+](=O)[O-])c1 (stereo not drawn) [Lercanidipine] | 26.70 ± 7.18 % of control
38 | CC1(C)O[C@H]2CC(=O)OC[C@]23[C@H]2CC[C@@]4(C)[C@H](c5ccoc5)OC(=O)[C@H]5O[C@]54[C@]2(C)C(=O)C[C@@H]13 [Limonin] | 19.90 ± 0.36 % of control
39 | CN1C(C(=O)Nc2ccccn2)=C(O)c2sc(Cl)cc2S1(=O)=O [Lornoxicam] | 79.39 ± 3.06 % of control
40 | CCCCc1nc(Cl)c(CO)n1Cc1ccc(-c2ccccc2-c2nn[nH]n2)cc1 [Losartan] | 35.88 ± 1.19 % of control
41 | CC[C@H](C)C(=O)O[C@H]1C[C@@H](C)C=C2C=C[C@H](C)[C@H](CC[C@@H]3C[C@@H](O)CC(=O)O3)[C@H]21 [Lovastatin] | 17.75 ± 0.36 % of control
42 | O=c1cc(-c2ccc(O)c(O)c2)oc2cc(O)cc(O)c12 [Luteolin] | 95.78 ± 7.92 % of control
43 | CC(C)=CCC/C(C)=C/C=C/C(C)=C/C=C/C(C)=C/C=C/C=C(C)/C=C/C=C(C)/C=C/C=C(\C)CCC=C(C)C [Lycopene] | 7.16 ± 0.77 % of control
44 | O=C1CCC[C@@H]2[C@H]3CCCN4CCC[C@@H](CN12)[C@@H]34 [Matrine] | 80.23 ± 12.45 % of control
45 | Cc1cccc(C)c1OCC(C)N (stereo not drawn) [Mexiletine] | 95.32 ± 2.42 % of control
46 | O=c1c(O)c(-c2cc(O)c(O)c(O)c2)oc2cc(O)cc(O)c12 [Myricetin] | 2.38 ± 0.15 % of control
47 | O=C1C[C@@H](c2ccc(O)cc2)Oc2cc(O)cc(O)c21 [Naringenin] | 42.57 ± 2.14 % of control
48 | C[C@@H]1O[C@@H](O[C@H]2[C@H](Oc3cc(O)c4c(c3)O[C@H](c3ccc(O)cc3)CC4=O)O[C@H](CO)[C@@H](O)[C@@H]2O)[C@H](O)[C@H](O)[C@H]1O [Naringin] | 100.87 ± 17.42 % of control
49 | CCOC(=O)C1=C(C)NC(C)=C(C(=O)OC)C1c1cccc([N+](=O)[O-])c1 (stereo not drawn) [Nitrendipine] | 27.00 ± 0.21 % of control
50 | CCOc1ccc(Cc2cc([C@]34OC[C@](CO)(O3)[C@@H](O)[C@H](O)[C@H]4O)ccc2Cl)cc1 [PF-04971729] | 92.72 ± 3.41 % of control
51 | O=C(/C=C/C=C/c1ccc2c(c1)OCO2)N1CCCCC1 [Piperine] | 203.66 ± 9.93 % of control
52 | CC(=O)Oc1cc2c(s1)CCN(C(C(=O)C1CC1)c1ccccc1F)C2 (stereo not drawn) [Prasugrel] | 31.93 ± 1.49 % of control
53 | CCCNCC(O)COc1ccccc1C(=O)CCc1ccccc1 (stereo not drawn) [Propafenone] | 54.95 ± 0.92 % of control
54 | O=c1c(O)c(-c2ccc(O)c(O)c2)oc2cc(O)cc(O)c12 [Quercetin] | 57.86 ± 5.58 % of control

Source: paper PMC11424460, “Inhibitory effects of calcium channel blockers nisoldipine and nimodipine on ivacaftor metabolism and their underlying mechanism” (Frontiers in Pharmacology, 2024)
